“And” between values parts separate entries of the source, which are not always exact repeats. Equal entries are not always repeated.
Experiments:
Ami1 [1] = molecular target: T1, Ami1 (Mycobacterium tuberculosis, UniProt I6Y4D2); experiment: Differential scanning fluorimetry (DSF, thermal shift) with Ami1; type: binding; conditions: for Kd: 10 μM Ami1, fitted with Thermott, triplicate, read-out: dissociation constant (Kd); for increase of the melting temperature (Tm) of the amidase: compared to Tm of the protein in the absence of any compound
Protocol: DSF assays were conducted using a QuantStudio3 real-time PCR system from Thermo Fisher Scientific, with a MicroAmp Fast 96-well reaction plate and covered with the MicroAmp Optical Adhesive Film (both from Thermo Fisher Scientific). The final reaction volume in each well was 20 μL, containing 10 μM Ami1 in buffer (20 mM HEPES pH 7.5, 100 mM NaCl, 1% DMSO) and 5× SYPRO Orange, either in the absence or presence of various concentrations of compounds. As a control, identical experiments were performed without protein. The temperature was increased from 25 to 99 °C at a gradual rate of 0.2 °C per 12.5 s. Data analysis and dissociation constants (Kd) were determined using the Thermott web application (https://thermott.com).[37],[38] Melting curves were exported from Thermott and visualized using the GraphPad Prism program. All experiments were performed by triplicate.

Ami1 [2] = molecular target: T1, Ami1; conditions: 10 mM EDTA; cited from earlier work
Ami1Mab = tested on: Ami1Mab; set-up: method as in PMID 33158165; conditions: cited from earlier work
Ami1 [3] = molecular target: T1, Ami1; type: binding; conditions: ITC

T1 sequence (I6Y4D2 25-241 limits assumed): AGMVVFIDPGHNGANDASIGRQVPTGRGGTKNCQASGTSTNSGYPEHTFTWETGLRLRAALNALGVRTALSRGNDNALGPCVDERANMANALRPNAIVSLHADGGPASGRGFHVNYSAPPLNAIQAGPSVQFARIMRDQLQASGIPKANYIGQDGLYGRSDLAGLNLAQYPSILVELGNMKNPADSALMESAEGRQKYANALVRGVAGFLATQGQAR

O=C(C=Cc1ccccc1)NNc1ccc([N+](=O)[O-])cc1[N+](=O)[O-] [1e, N′-(2,4-Dinitrophenyl)cinnamohydrazide]
increase in Kd compared with derivates 1a–1d (Ami1 [1]; DSF): 10 fold
Kd (Ami1 [1]; DSF): 36.1 ± 7.1 µM

O=C(NNc1ccc([N+](=O)[O-])cc1[N+](=O)[O-])c1ccc(Cl)cc1 [1c, 4-Chloro-N′-(2,4-dinitrophenyl)benzohydrazide]
Kd (Ami1 [1]; DSF): 9.07 ± 1.88 µM

O=C(O)CN(CCN(CC(=O)O)CC(=O)O)CC(=O)O [EDTA]
hydrolytic activity of Ami1 after treatment (Ami1 [2]): abolished

O=C(NNc1ccc([N+](=O)[O-])cc1[N+](=O)[O-])c1ccccc1 [1a, N′-(2,4-Dinitrophenyl)benzohydrazide]
Kd (Ami1 [1]; DSF): 2.71 ± 0.55 µM

O=C(NNc1ccc([N+](=O)[O-])cc1[N+](=O)[O-])C1CC1c1ccccc1 (stereo not shown) [compound 1]
Kd (Ami1 [1]; DSF): 6.69 ± 0.79 µM
increase of the melting temperature (Tm) of the amidase (Ami1 [1]): approximately 2 °C

COc1ccc(C(=O)NNc2ccc([N+](=O)[O-])cc2[N+](=O)[O-])cc1 [1b, N′-(2,4-Dinitrophenyl)-4-methoxybenzohydrazide]
Kd (Ami1 [1]; DSF): 4.27 ± 1.13 µM

Nc1ccccc1-c1nnn[nH]1 [inhibitor II]
concentration from which inhibition of the hydrolytic activity of Ami1Mab was observed (Ami1Mab): ≥ 800 µM

Ic1ccccc1-c1nn[nH]n1 [compound 5]
Kd (Ami1 [1]; DSF): 39 ± 6.1 µM
increase of the melting temperature (Tm) of the amidase (Ami1 [1]): approximately 2 °C
ΔGb (Ami1 [3]; 25 °C, pH 7.5): –6.02 kcal/mol
ΔHb (Ami1 [3]; 25 °C, pH 7.5): –0.37 ± 0.08 kcal/mol
n (stoichiometry) (Ami1 [3]; single binding-site model): 0.7 and 0.7 ± 0.1

O=C(NNc1ccc([N+](=O)[O-])cc1[N+](=O)[O-])c1ccc(F)cc1 [1d, N′-(2,4-Dinitrophenyl)-4-fluorobenzohydrazide]
Kd (Ami1 [1]; DSF): 1.65 ± 0.39 µM

O=C(NNc1ccc([N+](=O)[O-])cc1[N+](=O)[O-])C1CC1 [1f, N′-(2,4-Dinitrophenyl)cyclopropanecarbohydrazide]
interaction with Ami1 (Ami1 [1]; DSF dose-response): no interaction

From PMC11579945, “Identification of Potential Inhibitors of Mycobacterium tuberculosis Amidases: An Integrated In Silico and Experimental Study” (ACS Omega, 2024)
